{"source": "patent US7109351B1", "about": "“Fused pyrrolecarboxamides; GABA brain receptor ligands” (Neurogen Corporation, priority 1999, dated 2006)", "target": "benzodiazepine site of the GABAA receptor", "experiment": "GABAA receptor binding assay (displacement of 3H-Ro15-1788)", "details": "rat cortical tissue homogenate, 0.5 nM 3H-Ro15-1788 [3H-Flumazenil], 30 min at 4° C."}
{"molecule": "CC1CC(=O)c2c(C(=O)Nc3ccc(OCCO)nc3)c[nH]c2C1", "note": "(stereo not shown) [Compound 15, N-[(2-Hydroxyethoxy)pyrid-5-yl]-4-oxo-6-methyl-4,5,6,7-tetrahydro-1H-indole-3-carboxamide]", "values": [{"measurement": "Ki", "result": 0.012, "unit": "µM"}]}
